Measurements as given in PubChem BioAssay AID1259407 (Chemical Carcinogenesis Research Information System (CCRIS), 2018).
Active and inactive are the calls of the source. The rule behind the calls is not given here.

System: CCRIS mutagenicity, Ames/micronucleus/aberration tests
Assay: CCRIS mutagenicity studies
[1] = Test System: AMES SALMONELLA TYPHIMURIUM, Strain/Indicator: TA100, Metabolic Activation: NONE, Method: STANDARD PLATE

For `Cn1c(N)nc2ncc(-c3ccccc3)cc21`, the mutagenic call (End Point: IN VITRO MICRONUCLEUS, Test System: CHL/IU CELLS, Metabolic Activation: RAT, LIVER, S-9, PHENOBARBITAL AND 5,6-BENZOFLAVONE) was “active; positive”, the mutagenic call (End Point: IN VIVO MICRONUCLEUS, Test System: BONE MARROW POLYCHROMATIC ERYTHROCYTES, Species: MOUSE, Strain/Sex: BALB/C/MALE, Route: IP INJECTION) was “active; positive” and the mutagenic call (End Point: IN VIVO MICRONUCLEUS, Test System: SPLENOCYTES, Species: MOUSE, Strain/Sex: BALB/C, Route: IO) was “active; positive only for 48.8 mg dose at either 2 or 16 days after treatment”. The mutagenic call (Test System: AMES SALMONELLA TYPHIMURIUM, Strain/Indicator: TA98(1,8-DNP6), Metabolic Activation: RAT, LIVER, S-9, AROCLOR, Method: PREINCUBATION) was “active; positive”, the mutagenic call (Test System: AMES SALMONELLA TYPHIMURIUM, Strain/Indicator: TA98(1,8-DNP6), Metabolic Activation: RAT, LIVER, S-9, Method: STANDARD PLATE) was “active; positive” and the mutagenic call (Test System: AMES SALMONELLA TYPHIMURIUM, Strain/Indicator: TA98, Metabolic Activation: HUMAN, LIVER, MICROSOMES, Method: PREINCUBATION) was “active; positive”. The mutagenic call (Test System: AMES SALMONELLA TYPHIMURIUM, Strain/Indicator: TA98, Metabolic Activation: MONKEY, LIVER, MICROSOMES, Method: PREINCUBATION) was “active; positive”, the mutagenic call (Test System: AMES SALMONELLA TYPHIMURIUM, Strain/Indicator: TA98, Metabolic Activation: MOUSE, KIDNEY, S-9, PHENETHYL ISOTHIOCYANATE, Method: STANDARD PLATE) was “inactive; negative” and the mutagenic call (Test System: AMES SALMONELLA TYPHIMURIUM, Strain/Indicator: TA98, Metabolic Activation: MOUSE, KIDNEY, S-9, Method: STANDARD PLATE) was “inactive; negative”. The mutagenic call (Test System: AMES SALMONELLA TYPHIMURIUM, Strain/Indicator: TA98, Metabolic Activation: MOUSE, LIVER, S-9, PHENETHYL ISOTHIOCYANATE, Method: STANDARD PLATE) was “active; positive”, the mutagenic call (Test System: AMES SALMONELLA TYPHIMURIUM, Strain/Indicator: TA98, Metabolic Activation: MOUSE, LIVER, S-9, Method: STANDARD PLATE) was “active; positive” and the mutagenic call (Test System: AMES SALMONELLA TYPHIMURIUM, Strain/Indicator: TA98, Metabolic Activation: MOUSE, LUNG, S-9, PHENETHYL ISOTHIOCYANATE, Method: STANDARD PLATE) was “inactive; negative”. The mutagenic call (Test System: AMES SALMONELLA TYPHIMURIUM, Strain/Indicator: TA98, Metabolic Activation: MOUSE, LUNG, S-9, Method: STANDARD PLATE) was “inactive; negative”, the mutagenic call (Test System: AMES SALMONELLA TYPHIMURIUM, Strain/Indicator: TA98, Metabolic Activation: RAT, COLON, S-9, 3-METHYLCHOLANTHRENE, Method: STANDARD PLATE) was “inactive; negative” and the mutagenic call (Test System: AMES SALMONELLA TYPHIMURIUM, Strain/Indicator: TA98, Metabolic Activation: RAT, LIVER, HEPATOCYTES, AROCLOR 1254, Method: PREINCUBATION) was “active; positive”. For the same compound, the mutagenic call (Test System: AMES SALMONELLA TYPHIMURIUM, Strain/Indicator: TA98, Metabolic Activation: RAT, LIVER, HEPATOCYTES, Method: PREINCUBATION) was “active; positive”, the mutagenic call (Test System: AMES SALMONELLA TYPHIMURIUM, Strain/Indicator: TA98, Metabolic Activation: RAT, LIVER, MICROSOMES, Method: PREINCUBATION) was “active; positive” and the mutagenic call (Test System: AMES SALMONELLA TYPHIMURIUM, Strain/Indicator: TA98, Metabolic Activation: RAT, LIVER, S-9, AROCLOR 1254, Method: PREINCUBATION) was “active; positive”. The mutagenic call (Test System: AMES SALMONELLA TYPHIMURIUM, Strain/Indicator: TA98, Metabolic Activation: RAT, LIVER, S-9, AROCLOR, Method: PREINCUBATION) was “active; positive”, the mutagenic call (Test System: AMES SALMONELLA TYPHIMURIUM, Strain/Indicator: TA98, Metabolic Activation: RAT, LIVER, S-9, Method: STANDARD PLATE) was “active; positive” and the mutagenic call (Test System: AMES SALMONELLA TYPHIMURIUM, Strain/Indicator: TA98, Metabolic Activation: S-9, Method: MICROSUSPENSION) was “active; positive”. The mutagenic call (Test System: AMES SALMONELLA TYPHIMURIUM, Strain/Indicator: TA100, Metabolic Activation: RAT, LIVER, S-9, AROCLOR 1254, Method: PREINCUBATION) was “inactive; negative”, the mutagenic call (Test System: AMES SALMONELLA TYPHIMURIUM, Strain/Indicator: TA1978, Metabolic Activation: S-9 (0.5 ML), Method: MICROSUSPENSION) was “active; positive” and the mutagenic call (Test System: AMES SALMONELLA TYPHIMURIUM, Strain/Indicator: TA1978, Metabolic Activation: S-9 (2 MG/ML, 0.1 ML), Method: MICROSUSPENSION) was “inactive; negative”. For the same compound, the mutagenic call (Test System: AMES SALMONELLA TYPHIMURIUM, Strain/Indicator: TA1978, Metabolic Activation: S-9 (2 MG/ML, 0.25 ML), Method: MICROSUSPENSION) was “active; positive”, the mutagenic call (Test System: AMES SALMONELLA TYPHIMURIUM, Strain/Indicator: YG1019, Metabolic Activation: RAT LIVER S-9, AROCLOR, Method: PREINCUBATION) was “active; positive” and the mutagenic call (Test System: AMES SALMONELLA TYPHIMURIUM, Strain/Indicator: YG1024, Metabolic Activation: RAT, COLON, S-9, 3-METHYLCHOLANTHRENE, Method: STANDARD PLATE) was “inactive; negative”. For the same compound, the mutagenic call (Test System: AMES SALMONELLA TYPHIMURIUM, Strain/Indicator: YG1024, Metabolic Activation: RAT, LIVER, S-9, AROCLOR, Method: PREINCUBATION) was “active; positive”, the mutagenic call (Test System: CHINESE HAMSTER V-79, Strain/Indicator: V-79/6-THIOGUANINE, Metabolic Activation: HAMSTER, PANCREAS DUCT, EPITHELIAL CELLS) was “active; positive” and the mutagenic call (Test System: CHINESE HAMSTER V-79, Strain/Indicator: V-79/6-THIOGUANINE, Metabolic Activation: HUMAN, PANCREAS DUCT, EPITHELIAL CELLS) was “active; positive”. For the same compound, the mutagenic call (Test System: CHINESE HAMSTER V-79, Strain/Indicator: XEMH1A2-MZ (HPRT)/6-THIOGUANINE, Metabolic Activation: NONE) was “active; positive”, the mutagenic call (Test System: HUMAN COLON CANCER CELLS, Strain/Indicator: DLD-1 (HPRT)/6-THIOGUANINE, Metabolic Activation: MOUSE LIVER S-9, PHENOBARBITAL AND 5,6-BENZOFLAVONE, Method: SUSPENSION/PLATE) was “active; positive” and the mutagenic call (Test System: HUMAN COLON CANCER CELLS, Strain/Indicator: HCT116 (HPRT)/6-THIOGUANINE, Metabolic Activation: MOUSE LIVER S-9, PHENOBARBITAL AND 5,6-BENZOFLAVONE, Method: SUSPENSION/PLATE) was “active; positive”. For the same compound, the mutagenic call (Test System: UDS HUMAN HEPATOCYTES, Strain/Indicator: THY INCORP, Metabolic Activation: NONE, Method: AUTORADIOGRAPHY) was “active; positive” and the mutagenic call (Test System: UDS MOUSE HEPATOCYTES, Strain/Indicator: THY INCORP, Metabolic Activation: NONE, Method: AUTORADIOGRAPHY) was “active; positive”.

In the case of `Cc1cccc(C)c1NC(=O)CN1CCCC1=O`, the mutagenic call (Test System: AMES SALMONELLA TYPHIMURIUM, Strain/Indicator: TA98, Metabolic Activation: NONE, Method: PREINCUBATION) is reported as “inactive; negative”, the mutagenic call (Test System: AMES SALMONELLA TYPHIMURIUM, Strain/Indicator: TA98, Metabolic Activation: RAT, LIVER, S-9, SODIUM PHENOBARBITAL AND 5,6-BENZOFLAVONE, Method: PREINCUBATION) is reported as “inactive; negative” and the mutagenic call (Test System: AMES SALMONELLA TYPHIMURIUM, Strain/Indicator: TA100, Metabolic Activation: NONE, Method: PREINCUBATION) is reported as “inactive; negative”. The mutagenic call (Test System: AMES SALMONELLA TYPHIMURIUM, Strain/Indicator: TA100, Metabolic Activation: RAT, LIVER, S-9, SODIUM PHENOBARBITAL AND 5,6-BENZOFLAVONE, Method: PREINCUBATION) was “inactive; negative”, the mutagenic call (Test System: AMES SALMONELLA TYPHIMURIUM, Strain/Indicator: TA1535, Metabolic Activation: NONE, Method: PREINCUBATION) was “inactive; negative” and the mutagenic call (Test System: AMES SALMONELLA TYPHIMURIUM, Strain/Indicator: TA1535, Metabolic Activation: RAT, LIVER, S-9, SODIUM PHENOBARBITAL AND 5,6-BENZOFLAVONE, Method: PREINCUBATION) was “inactive; negative”. The mutagenic call (Test System: AMES SALMONELLA TYPHIMURIUM, Strain/Indicator: TA1537, Metabolic Activation: NONE, Method: PREINCUBATION) was “inactive; negative”, the mutagenic call (Test System: AMES SALMONELLA TYPHIMURIUM, Strain/Indicator: TA1537, Metabolic Activation: RAT, LIVER, S-9, SODIUM PHENOBARBITAL AND 5,6-BENZOFLAVONE, Method: PREINCUBATION) was “inactive; negative” and the mutagenic call (Test System: E. COLI, Strain/Indicator: WP2 UVRA, Metabolic Activation: NONE, Method: PREINCUBATION) was “inactive; negative”. For the same compound, the mutagenic call (Test System: E. COLI, Strain/Indicator: WP2 UVRA, Metabolic Activation: RAT, LIVER, S-9, SODIUM PHENOBARBITAL AND 5,6-BENZOFLAVONE, Method: PREINCUBATION) was “inactive; negative”.

In the case of `Cc1ccc(C(=O)ON(OCc2ccccc2)C(=O)c2ccccc2)cc1`, the mutagenic call [1] is reported as “active; positive” and the mutagenic call (Test System: AMES SALMONELLA TYPHIMURIUM, Strain/Indicator: TA100, Metabolic Activation: RAT, S-9, AROCLOR, Method: STANDARD PLATE) is reported as “active; positive”.

`CC(=O)O[C@H]1[C@H](OC(C)=O)COC(Nc2ccc([N+](=O)[O-])cc2)[C@@H]1OC(C)=O` (stereo partly specified) was tested, and the mutagenic call [1] was “inactive; negative”.

For `CN(C)CCCNc1c2ccccc2nc2c(Cl)ccc([N+](=O)[O-])c12`, the mutagenic call (Test System: AMES SALMONELLA TYPHIMURIUM, Strain/Indicator: TA98, Metabolic Activation: NONE, Method: STANDARD PLATE) was “active; positive” and the mutagenic call [1] was “active; positive”.

With `CC(=O)NSc1c2cc(O)ccc2nc2ccc(O)cc12` the mutagenic call (Test System: AMES SALMONELLA TYPHIMURIUM, Strain/Indicator: TA97A, Metabolic Activation: NONE, Method: PREINCUBATION) was “active; positive”.
